Like-named read-outs stand apart in the source and are kept apart here.
What was measured:
[1] = Fate of intravenously administered [2-^14C] thymidine in rats; type: in vivo; conditions: intravenous
Description: Extensive studies by the present inventors led to the discovery that when “thymidine” is intravenously administered to rats, the thymidine administered is utilized only in the S phase of the cell cycle, and more precisely, within 3 minutes after the administration of the thymidine. This observation is based on the findings obtained using a “thymidine” with the “2” carbon position within its structure labeled with ^14C and tracking the fate of the administered thymidine. It was discovered that thymidine not incorporated during the cell division is rapidly metabolized in the liver, leucocytes, and the like and mostly excreted out of the body as carbon dioxide gas. Based on these findings, the present inventors discovered that a thymidine with “2” carbon position labeled with ^14C is an extremely important marker for specifying the frequency of dividing cells in vivo and for localizing its site(s) within the body. It was also discovered that a (1,3-N) thymidine, obtained by attaching a fluorescent compound to the nitrogen atoms at 1,3-positions of the thymidine, can also be used as the labeled thymidine.

[2] = test system: excised jejunum, basal layer of the intestinal tract mucosa; assay: [2-^14C] thymidine incorporation in excised, cultured jejunum (in vitro system); type: cell-based, Wistar rat; conditions: 5 μCi injected into excised jejunum, cultured 10 minutes at 37° C.
Description: Next, the jejunum of a healthy Wistar male rat at seven weeks of age was used. The part of the abdomen was opened under ethyl ether anesthesia, and the jejunum of about 2-4 cm in length was excised. […] Then, the specimen was immediately frozen in liquid nitrogen and sectioned using a microtome to obtain frozen sections. Semi-microautoradiographs were prepared from these sections.

[3] = BALB/c, mouse, in vivo
Description: The back of BALB/c nude mice was inoculated with a 10^7 Hu09 cells (human osteosarcoma) grown in culture. 3 weeks later, animals with granulation tissue with a collagen layer were submitted for the experiment. […] 50 μm thick whole body sections cut longitudinally were prepared using a Leica Macrocut. The sections were stored in a sealed container and lyophilized. The dried sections in contact with a Fuji imaging plate were exposed in a dark box, and the IP was then processed with the Fuji BAS2000 analyzer to generate a digital image (FIG. 1).
The specimen was then placed in contact with IP, and 16 hours later the data was converted into a computer image for analysis.

[4] = test system: jejunum, basal layer of the intestinal mucosa; assay: [2-^14C] thymidine injected into exposed jejunum, semi-microautoradiograph; type: in vivo, Wistar rat; conditions: 5 μCi injected into exposed jejunum, 5 minutes
Description: The specimen used was the jejunum from a healthy 7-week old Wistar rat, male. Under ethyl ether anesthesia, the abdomen was opened to expose the jejunum, which was marked with methylene blue. […] Frozen sections were prepared with a microtome, and a semi-microautoradiographs were obtained.

[5] = Description: After administration of the aforementioned ^90Y into the mouse tail vein the systemic distribution was studied by the following experiments. The animals used were those obtained from the source as used for the BALB/c (body weight 25 g) described in Examples 1 and 2 above. After administration of an aqueous 0.5 μCi (18.5 kBq) ^90YCl citrate solution per male mouse in the tail vein, analysis was conducted over time at 5 time points: at 10 minutes, 1, 6, 24, and 48 hours. The animals were sacrificed under an ether anesthesia, and the whole body autoradiographs were prepared using with the same procedure as that used in Example 1 and Example 2 (FIGS. 7, 8, 9, 10, 11).
bone marrow (B) = conditions: for effect of ^90Y radiation on [2-^14C] thymidine incorporation (suppression of mitosis), B: bone marrow
Description: (§1) ^90YCl at the three levels, 0.5 μCi (18.5 kBq), 2 μCi (74 kBq) or 10 μCi (370 kBq), was injected intravenously into the tail of male BALB/c mice in groups of 6 mice per group (a total of 18 mice). […] The animals were sacrificed one hour later under ether anesthesia, and the macroautoradiographs were prepared as described in Example 1. […] FIG. 12 is a microautoradiograph of the bone marrow, showing the bone marrow from a mouse sacrificed 1 hour after [2-^14C] was administered, which was 48 hours after the ^90Y administration.
(§2) On the sections were placed five sheets of 10 μm thick aluminum foil, and this was brought into contact with IP to generate only the ^90Y image. […] If the image of the two radiation nuclides is to be obtained simultaneously, one can place an industrial X-ray film in contact with said section, followed by five sheets of aluminum foil, and then the IP; these are then stored in a dark box. After about 7 days, the X-ray film is taken out and photographically processed by the usual method to produce the image, while the IP is processed by Fuji BAS2000 for computer processing of the images. This method provides ^14C image on the industrial X-ray film. This method also gives a ^90Y image on the IP.

[6] = test system: digestive tract mucosa (m)
Description: as §1, §2

tumor (T) = assay: Effect of ^90Y radiation on mitosis, [2-^14C] thymidine incorporation as marker of DNA replication (macroautoradiography): tumor; type: in vivo, BALB/c mice; note: key: −: no effect; ±: Slight inhibition; +: Decrease in function; ++: Definite decrease in function; +++: No incorporation of ^14C marker in DNA replication
[7] = 0.5 μCi ^90Y i.v., 1 hr after ^90Y
[8] = 0.5 μCi ^90Y i.v., 6 hr after ^90Y
[9] = 0.5 μCi ^90Y i.v., 24 hr after ^90Y
[10] = 0.5 μCi ^90Y i.v., 48 hr after ^90Y
[11] = 0.5 μCi ^90Y i.v., 72 hr after ^90Y
[12] = 0.5 μCi ^90Y i.v., 168 hr after ^90Y
[13] = 2 μCi ^90Y i.v., 1 hr after ^90Y
[14] = 2 μCi ^90Y i.v., 6 hr after ^90Y
[15] = 2 μCi ^90Y i.v., 24 hr after ^90Y
[16] = 2 μCi ^90Y i.v., 48 hr after ^90Y
[17] = 2 μCi ^90Y i.v., 72 hr after ^90Y
[18] = 2 μCi ^90Y i.v., 168 hr after ^90Y
[19] = 10 μCi ^90Y i.v., 1 hr after ^90Y
[20] = 10 μCi ^90Y i.v., 6 hr after ^90Y
[21] = 10 μCi ^90Y i.v., 24 hr after ^90Y
[22] = 10 μCi ^90Y i.v., 48 hr after ^90Y
[23] = 10 μCi ^90Y i.v., 72 hr after ^90Y
[24] = 10 μCi ^90Y i.v., 168 hr after ^90Y

Cc1cn([C@H]2C[C@H](O)[C@@H](CO)O2)c(=O)[nH]c1=O [[2-^14C] thymidine]
time after administration within which thymidine is utilized (S phase) [1]: ≤ 3 min
incorporation in the basal layer of the intestinal tract mucosa (semi-microautoradiograph) [2]: substantially darkened images
time to incorporation into DNA after injection [3]: less than 3 minutes
time by which the ^14C component is completely excreted out of other areas, except the bone and bone marrow ([3]; iv): ≤ 1 h
incorporation in the basal layer of the intestinal mucosa (semi-microautoradiograph) [4]: darkened images were clearly recorded

[Cl][90Y]([Cl])[Cl] [^90Y, ^90YCl3]
accumulation in the skeletal bones, share of the total dose ([5]; 0.5 μCi ^90YCl citrate solution, tail vein, IP images at 10 minutes to 48 hours): ≥ 70%
^90Y remaining in the liver, spleen, and kidney ([5]; 0.5 μCi, tail vein, 24 hours after administration): only a slight residue
localization in skin, digestive tract epithelium, and vascular endothelial cells ([5]; 0.5 μCi, tail vein, image analysis): did not localize
^90Y image at the site of the osteosarcoma HU09 ([5]; whole body autoradiograph, compared with bones): blackened image completely equivalent to the extent seen in the bones
effect of ^90Y radiation on [2-^14C] thymidine incorporation (suppression of mitosis), B (bone marrow (B); [7]): −
effect of ^90Y radiation on [2-^14C] thymidine incorporation (suppression of mitosis), B (bone marrow (B); [8]): −
effect of ^90Y radiation on [2-^14C] thymidine incorporation (suppression of mitosis), B (bone marrow (B); [9]): −
effect of ^90Y radiation on [2-^14C] thymidine incorporation (suppression of mitosis), B (bone marrow (B); [10]): +
effect of ^90Y radiation on [2-^14C] thymidine incorporation (suppression of mitosis), B (bone marrow (B); [11]): +
effect of ^90Y radiation on [2-^14C] thymidine incorporation (suppression of mitosis), B (bone marrow (B); [12]): ±
effect of ^90Y radiation on [2-^14C] thymidine incorporation (suppression of mitosis), B (bone marrow (B); [13]): −
effect of ^90Y radiation on [2-^14C] thymidine incorporation (suppression of mitosis), B (bone marrow (B); [14]): +
effect of ^90Y radiation on [2-^14C] thymidine incorporation (suppression of mitosis), B (bone marrow (B); [15]): ++
effect of ^90Y radiation on [2-^14C] thymidine incorporation (suppression of mitosis), B (bone marrow (B); [16]): ++
effect of ^90Y radiation on [2-^14C] thymidine incorporation (suppression of mitosis), B (bone marrow (B); [17]): ++
effect of ^90Y radiation on [2-^14C] thymidine incorporation (suppression of mitosis), B (bone marrow (B); [18]): +
effect of ^90Y radiation on [2-^14C] thymidine incorporation (suppression of mitosis), B (bone marrow (B); [19]): ±
effect of ^90Y radiation on [2-^14C] thymidine incorporation (suppression of mitosis), B (bone marrow (B); [20]): ++
effect of ^90Y radiation on [2-^14C] thymidine incorporation (suppression of mitosis), B (bone marrow (B); [21]): +++
effect of ^90Y radiation on [2-^14C] thymidine incorporation (suppression of mitosis), B (bone marrow (B); [22]): +++
effect of ^90Y radiation on [2-^14C] thymidine incorporation (suppression of mitosis), B (bone marrow (B); [23]): +++
effect of ^90Y radiation on [2-^14C] thymidine incorporation (suppression of mitosis), B (bone marrow (B); [24]): +++
level that showed cytotoxic effects near the sites of ^90Y deposition (bone marrow (B); bone / bone marrow): about 5 μCi/25 g
activity of the lymphocytes in the bone marrow to degrade [2-^14C] thymidine (bone marrow (B); first group, 0.5 μCi administration): only a slight decrease
effect of ^90Y radiation on [2-^14C] thymidine incorporation (suppression of mitosis), m [6, 7]: −
effect of ^90Y radiation on [2-^14C] thymidine incorporation (suppression of mitosis), m [6, 8]: −
effect of ^90Y radiation on [2-^14C] thymidine incorporation (suppression of mitosis), m [6, 9]: −
effect of ^90Y radiation on [2-^14C] thymidine incorporation (suppression of mitosis), m [6, 10]: −
effect of ^90Y radiation on [2-^14C] thymidine incorporation (suppression of mitosis), m [6, 11]: −
effect of ^90Y radiation on [2-^14C] thymidine incorporation (suppression of mitosis), m [6, 12]: −
effect of ^90Y radiation on [2-^14C] thymidine incorporation (suppression of mitosis), m [6, 13]: −
effect of ^90Y radiation on [2-^14C] thymidine incorporation (suppression of mitosis), m [6, 14]: −
effect of ^90Y radiation on [2-^14C] thymidine incorporation (suppression of mitosis), m [6, 15]: −
effect of ^90Y radiation on [2-^14C] thymidine incorporation (suppression of mitosis), m [6, 16]: −
effect of ^90Y radiation on [2-^14C] thymidine incorporation (suppression of mitosis), m [6, 17]: −
effect of ^90Y radiation on [2-^14C] thymidine incorporation (suppression of mitosis), m [6, 18]: −
effect of ^90Y radiation on [2-^14C] thymidine incorporation (suppression of mitosis), m [6, 19]: −
effect of ^90Y radiation on [2-^14C] thymidine incorporation (suppression of mitosis), m [6, 20]: −
effect of ^90Y radiation on [2-^14C] thymidine incorporation (suppression of mitosis), m [6, 21]: −
effect of ^90Y radiation on [2-^14C] thymidine incorporation (suppression of mitosis), m [6, 22]: −
effect of ^90Y radiation on [2-^14C] thymidine incorporation (suppression of mitosis), m [6, 23]: −
effect of ^90Y radiation on [2-^14C] thymidine incorporation (suppression of mitosis), m [6, 24]: −
effect of ^90Y radiation on [2-^14C] thymidine incorporation (suppression of mitosis), T (tumor (T); [7]): −
effect of ^90Y radiation on [2-^14C] thymidine incorporation (suppression of mitosis), T (tumor (T); [8]): −
effect of ^90Y radiation on [2-^14C] thymidine incorporation (suppression of mitosis), T (tumor (T); [9]): −
effect of ^90Y radiation on [2-^14C] thymidine incorporation (suppression of mitosis), T (tumor (T); [10]): +
effect of ^90Y radiation on [2-^14C] thymidine incorporation (suppression of mitosis), T (tumor (T); [11]): +
effect of ^90Y radiation on [2-^14C] thymidine incorporation (suppression of mitosis), T (tumor (T); [12]): ±
effect of ^90Y radiation on [2-^14C] thymidine incorporation (suppression of mitosis), T (tumor (T); [13]): −
effect of ^90Y radiation on [2-^14C] thymidine incorporation (suppression of mitosis), T (tumor (T); [14]): +
effect of ^90Y radiation on [2-^14C] thymidine incorporation (suppression of mitosis), T (tumor (T); [15]): ++
effect of ^90Y radiation on [2-^14C] thymidine incorporation (suppression of mitosis), T (tumor (T); [16]): ++
effect of ^90Y radiation on [2-^14C] thymidine incorporation (suppression of mitosis), T (tumor (T); [17]): ++
effect of ^90Y radiation on [2-^14C] thymidine incorporation (suppression of mitosis), T (tumor (T); [18]): +
effect of ^90Y radiation on [2-^14C] thymidine incorporation (suppression of mitosis), T (tumor (T); [19]): ±
effect of ^90Y radiation on [2-^14C] thymidine incorporation (suppression of mitosis), T (tumor (T); [20]): ++
effect of ^90Y radiation on [2-^14C] thymidine incorporation (suppression of mitosis), T (tumor (T); [21]): +++
effect of ^90Y radiation on [2-^14C] thymidine incorporation (suppression of mitosis), T (tumor (T); [22]): +++
effect of ^90Y radiation on [2-^14C] thymidine incorporation (suppression of mitosis), T (tumor (T); [23]): +++
effect of ^90Y radiation on [2-^14C] thymidine incorporation (suppression of mitosis), T (tumor (T); [24]): +++

Source: US20040028609A1, “Two-dimensionally quantified image method for distinguishing and quantifying over-growing tissue or the like” (priority 2000, published 2004)
